One data set has as its target α-glycosidase. Briefly: α-glycosidase inhibitory activity (PNPG method). Conditions: yeast enzyme EC 3.2.1.20. In kind it is biochemical. The protocol: Optical rotations were measured on a MCP 5100 modular compact polarimeter (Anton Paar, America). IR spectra were taken on a Nicolet 380 FT-IR instrument (Thermo, USA) as KBr discs. NMR spectra were recorded on a Bruker Avance III 500 MHz NMR spectrometer (Bruker, German). ESIMS and HRESIMS were recorded with amaZon SL (Bruker) or Compact QqTOF (Bruker). ECD spectra were measured by APL Chiascan (Applied Photophysics Ltd., England). Semi-preparative HPLC was carried out using a C18 column (Cosmosil-pack, 10 × 250 mm, 5 μm, 4 mL/min, Nacalai Tesque). C18 gel (20–45 μm, Fuji SilysiSa Chemical Co., Ltd., Greenville, NC, UA), Silica gel (60–80, 200–300 mesh, Qingdao Marine Chemical Co., Ltd., Qingdao, China), Sephadex LH-20 (Merck, Kenilworth, NJ, USA) were used for column chromatograghy. α-glycosidase (Sigma-Aldrich, UA) used for the bioactivity was derived from yeast and its EINECS (EC) unmber is 3.2.1.20.
The method optimized by Jong et al. ([2007]) was performed in vitro to test the α-glucosidase inhibitory activity of compounds 1–8. Acarbose was used as positive control.
(§1) Compounds 1–8 were tested for inhibitory activity against α-glycosidase using the PNPG method and for cytotoxic effects on SGC-7901, K562, A549, BEL-7402, and Hela cell lines using the MTT method (See Supplementary Table 1 in the Supplementary Material).

The test system of a further data set is K562 cell line. In words: MTT cytotoxicity assay, K562. The format is cell-based. The conditions noted are these: MTT method, K562 cells. How it is done:
(§2) The MTT method optimized by Mosmann ([1983]) was performed in vitro to test the cytotoxic activity of compounds 1–8. Cisplatin was used as a positive control.
as §1
For orientation: Tetrazolium dyes change colour on reduction, which living cells bring about.

Another data set deals with A549 cell line. Briefly: MTT cytotoxicity assay, A549. The format is cell-based. Conditions: MTT method, A549 cells. The protocol:
as §2, §1

The test system of another data set is SGC-7901 cell line. Briefly: MTT cytotoxicity assay, SGC-7901. The format is cell-based. Conditions: MTT method, SGC-7901 cells. The protocol:
as §2, §1

In another data set the test system is Hela cell line. In words: MTT cytotoxicity assay, Hela. The conditions noted are these: MTT method, Hela cells. In kind it is cell-based. The protocol: as §2, §1
For a further data set, the system named is BEL-7402 cell line. Briefly: MTT cytotoxicity assay, BEL-7402. The format is cell-based. Conditions: MTT method, BEL-7402 cells. How it is done: as §2, §1
For data set [1], the system named is activated murine macrophage-like cell line RAW 264.7. On the set-up: method as in Zhang et al., 2007b. The conditions noted are these: activated RAW 264.7 cells; ref Zhang et al., 2007b; cited from earlier work.

pIC50: −log10 of the molar value. A value given as a limit tells only on which side of the number the result lay.

What is called pIC50 is the negative decadic logarithm of the IC50, by convention in mol/L. The low end stands for a high IC50, the high end for a low IC50. In the case of `C[C@H]1O[C@H](O[C@H]2[C@H](O)[C@@H](O)[C@@H](O[C@H]3[C@H](O)[C@@H](O)C(O)O[C@@H]3CO)O[C@@H]2CO)[C@H](O)[C@@H](O)[C@@H]1N[C@H]1C=C(CO)[C@@H](O)[C@H](O)[C@H]1O` (stereo partly shown) [Acarbose, reference compound], the pIC50 on α-glycosidase is 3.14.

For orientation: melting point means the temperature of the solid-liquid transition. `CC(C)C1C2OC(=O)C1C1CCC3(O)C(=O)OC2C13C` (stereo not shown) [Compound 4, Dendroterpene D] had a melting point of 167 to 168 °C. For the same compound, in the data set on K562 cell line (Homo sapiens), the pIC50 is less than 4.30. In the data set with A549 cell line (Homo sapiens), the pIC50 is less than 4.30. In the data set with SGC-7901 cell line (Homo sapiens), this compound showed a pIC50 of less than 4.30. The pIC50 on α-glycosidase was less than 3.00. The compound also had a pIC50 in the data set on Hela cell line (Homo sapiens) of less than 4.30. The pIC50 in the data set with BEL-7402 cell line (Homo sapiens) is less than 4.30.

In the case of `COc1cccc(CC2C3=C(Oc4c2cc(O)c(O)c4OC)C(=O)c2cc(O)c4cc(O)ccc4c2C3=O)c1` (stereo not shown) [Compound 6, dendrocandin V], the negative logarithm of the IC50 (pIC50) is 4.55 with K562 cell line (Homo sapiens); less than 4.30 in the data set with A549 cell line (Homo sapiens); less than 4.30 in the data set with SGC-7901 cell line (Homo sapiens); 3.17 at α-glycosidase; less than 4.30 in the data set with Hela cell line (Homo sapiens); less than 4.30 in the data set with BEL-7402 cell line (Homo sapiens).

For the compound `Oc1ccc(CCOCCc2ccc(O)cc2)cc1` [Compound 8, di-[2-(4-hydroxyphenyl)] ethyl ether], the pIC50 is less than 4.30 with K562 cell line (Homo sapiens); less than 4.30 in the data set with A549 cell line (Homo sapiens); less than 4.30 with SGC-7901 cell line (Homo sapiens); 3.52 against α-glycosidase; less than 4.30 in the data set with Hela cell line (Homo sapiens); less than 4.30 in the data set on BEL-7402 cell line (Homo sapiens).

Consider `CC(C)C1C2OC(=O)C1C1CC=CC1(C)C2NC=O` (stereo not shown) [Compound 1, Dendroterpene A], for which the melting point lay in the range of 185 to 186 °C. Moreover, the pIC50 in the data set with K562 cell line (Homo sapiens) is less than 4.30. In the data set with A549 cell line (Homo sapiens), this compound showed a pIC50 of less than 4.30. In addition, in the data set on SGC-7901 cell line (Homo sapiens), the pIC50 is less than 4.30. In addition, on α-glycosidase, the pIC50 was less than 3.00. This compound also showed a pIC50 in the data set on Hela cell line (Homo sapiens) of less than 4.30. Also, the pIC50 with BEL-7402 cell line (Homo sapiens) was less than 4.30.

`CC(C)C1C2OC(=O)C1C1(O)CC=CC1(C)C2NC=O` (stereo not shown) [Compound 2, Dendroterpene B] returned a melting point of 200 to 201 °C. This compound also showed a pIC50 in the data set with K562 cell line (Homo sapiens) of less than 4.30. In the data set with A549 cell line (Homo sapiens), this compound showed a pIC50 of less than 4.30. Also, the pIC50 with SGC-7901 cell line (Homo sapiens) was less than 4.30. On α-glycosidase, the pIC50 was less than 3.00. Also, in the data set on Hela cell line (Homo sapiens), the pIC50 was less than 4.30. Also, the pIC50 in the data set with BEL-7402 cell line (Homo sapiens) is less than 4.30.

Turning to `CC(=O)/C=C/[C@@]1(O)C(C)=CC(=O)CC1(C)C` [Compound 7, S(+)-dehydrovomifoliol], the pIC50 with K562 cell line (Homo sapiens) is less than 4.30; in the data set on A549 cell line (Homo sapiens) it was less than 4.30; in the data set with SGC-7901 cell line (Homo sapiens), less than 4.30; at α-glycosidase, less than 3.00; with Hela cell line (Homo sapiens), less than 4.30; in the data set with BEL-7402 cell line (Homo sapiens), less than 4.30.

In the case of `CC(C)C1C2OC(=O)C1C1CCC3C(=O)OC2C31C` (stereo not shown) [Compound 3, Dendroterpene C], the pIC50 is less than 4.30 in the data set on K562 cell line (Homo sapiens); less than 4.30 with A549 cell line (Homo sapiens); less than 4.30 with SGC-7901 cell line (Homo sapiens); 3.01 at α-glycosidase; less than 4.30 with Hela cell line (Homo sapiens); less than 4.30 in the data set with BEL-7402 cell line (Homo sapiens).

As for `COc1cccc(CCc2cc(OC)c(O)c3c2C(Cc2cccc(OC)c2)c2cc(O)c(O)c(OC)c2O3)c1` (stereo not shown) [Compound 5, nobilin E], the pIC50 in the data set on K562 cell line (Homo sapiens) was 4.98; in the data set with A549 cell line (Homo sapiens), 4.54; in the data set on SGC-7901 cell line (Homo sapiens) it was 4.76; at α-glycosidase, 4.52; with Hela cell line (Homo sapiens), 4.65; with BEL-7402 cell line (Homo sapiens), 4.70. Further, in data set [1], the “inhibitory effects on NO production” value is given as “exhibited inhibitory effects on NO production”.

For the compound `N.N.[Cl][Pt][Cl]` [Cisplatin, reference compound], the pIC50 was 5.51 in the data set on K562 cell line; 5.71 in the data set with A549 cell line; 5.39 in the data set with SGC-7901 cell line; 4.95 in the data set on Hela cell line; 5.40 with BEL-7402 cell line.
